Here are results for 26 compounds from patent publication US8232274B2, “Pyridazinone derivatives useful as glucan synthase inhibitors” (Albany Molecular Research, Inc., priority 2007, dated 2012).

The structures appear in SMILES notation. pIC50: −log10 of the molar value.

Experiment [1] deals with T1, glucan synthase (Saccharomyces cerevisiae, UniProt P38631).
T1 construct: glucan synthase sources (2 μL permeabilized PM503 cells, or 3 μL membrane preparations from either PM503, BWP17, or ND158); endogenous in cells; host or cells: S. cerevisiae strain PM503, permeabilized cells or 100,000 g membrane fraction
T1 sequence (P06780 1-206): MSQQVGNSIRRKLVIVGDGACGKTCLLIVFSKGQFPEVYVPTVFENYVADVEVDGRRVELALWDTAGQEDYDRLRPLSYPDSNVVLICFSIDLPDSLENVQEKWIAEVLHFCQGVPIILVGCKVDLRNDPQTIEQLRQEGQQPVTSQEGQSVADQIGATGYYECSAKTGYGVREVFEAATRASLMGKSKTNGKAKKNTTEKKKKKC
T1 sequence (P38631 whole entry): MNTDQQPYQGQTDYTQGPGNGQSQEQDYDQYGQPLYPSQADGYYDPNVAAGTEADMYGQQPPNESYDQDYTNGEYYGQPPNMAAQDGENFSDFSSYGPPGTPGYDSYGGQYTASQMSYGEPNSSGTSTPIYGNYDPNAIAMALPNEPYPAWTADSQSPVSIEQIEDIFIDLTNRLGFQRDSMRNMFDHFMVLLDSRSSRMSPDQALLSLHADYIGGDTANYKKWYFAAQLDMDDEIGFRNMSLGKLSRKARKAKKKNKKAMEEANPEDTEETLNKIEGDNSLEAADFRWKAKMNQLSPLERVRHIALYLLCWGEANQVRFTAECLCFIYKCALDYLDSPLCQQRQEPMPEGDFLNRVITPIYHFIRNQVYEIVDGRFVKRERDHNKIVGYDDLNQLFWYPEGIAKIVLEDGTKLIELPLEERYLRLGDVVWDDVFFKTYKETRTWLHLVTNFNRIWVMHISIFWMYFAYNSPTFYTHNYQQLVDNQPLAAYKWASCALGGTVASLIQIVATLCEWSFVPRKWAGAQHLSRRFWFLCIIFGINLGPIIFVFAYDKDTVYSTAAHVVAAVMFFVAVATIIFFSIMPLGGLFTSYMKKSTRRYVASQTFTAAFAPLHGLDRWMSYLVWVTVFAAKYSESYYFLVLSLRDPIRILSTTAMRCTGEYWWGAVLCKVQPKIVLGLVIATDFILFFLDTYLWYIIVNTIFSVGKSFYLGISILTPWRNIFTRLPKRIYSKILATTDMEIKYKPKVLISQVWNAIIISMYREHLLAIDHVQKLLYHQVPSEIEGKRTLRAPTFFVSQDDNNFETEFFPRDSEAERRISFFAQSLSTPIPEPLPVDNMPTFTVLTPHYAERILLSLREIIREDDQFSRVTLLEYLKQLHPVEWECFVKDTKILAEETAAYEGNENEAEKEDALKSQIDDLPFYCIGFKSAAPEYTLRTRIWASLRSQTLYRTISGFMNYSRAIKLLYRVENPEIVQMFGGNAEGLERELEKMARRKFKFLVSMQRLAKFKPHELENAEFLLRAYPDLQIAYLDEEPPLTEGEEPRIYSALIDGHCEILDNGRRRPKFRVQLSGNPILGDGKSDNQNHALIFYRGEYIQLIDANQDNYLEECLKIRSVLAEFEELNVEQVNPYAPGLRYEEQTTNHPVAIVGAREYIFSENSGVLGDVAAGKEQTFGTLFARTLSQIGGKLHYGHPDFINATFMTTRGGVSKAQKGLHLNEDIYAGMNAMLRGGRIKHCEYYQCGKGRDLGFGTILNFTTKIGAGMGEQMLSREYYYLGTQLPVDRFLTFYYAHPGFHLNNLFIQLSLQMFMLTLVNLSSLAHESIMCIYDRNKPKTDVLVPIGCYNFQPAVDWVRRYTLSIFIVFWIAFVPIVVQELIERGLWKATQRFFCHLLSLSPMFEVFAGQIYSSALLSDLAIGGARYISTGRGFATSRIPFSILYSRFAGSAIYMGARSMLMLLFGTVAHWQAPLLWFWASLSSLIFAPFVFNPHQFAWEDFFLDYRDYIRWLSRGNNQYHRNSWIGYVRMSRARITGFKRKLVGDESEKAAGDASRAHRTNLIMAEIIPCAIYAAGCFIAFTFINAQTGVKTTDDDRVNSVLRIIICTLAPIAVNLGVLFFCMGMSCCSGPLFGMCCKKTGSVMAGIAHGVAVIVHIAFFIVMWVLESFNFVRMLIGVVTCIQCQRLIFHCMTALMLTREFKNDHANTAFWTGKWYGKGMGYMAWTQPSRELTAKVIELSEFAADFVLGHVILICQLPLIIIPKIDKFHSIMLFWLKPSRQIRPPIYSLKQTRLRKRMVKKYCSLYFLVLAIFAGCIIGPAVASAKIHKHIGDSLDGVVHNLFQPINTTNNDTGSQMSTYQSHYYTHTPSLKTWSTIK
Briefly: β(1,3) glucan synthase assay, S. cerevisiae PM503 permeabilized cells or membrane preparation (IC50). The experiment is classed as biochemical. As for the experimental part:
(§1) β(1,3) Glucan Synthase Assay:
1. Preparation of Permeabilized Saccharomyces cerevisiae Cells.
Permeabilization of yeast cells was performed according to Crotti et al. (Analytical Biochemistry, 292, 8-16, 2001) with some modifications. A 10 ml-starter culture of the S. cerevisiae strain in YPD medium (1% yeast extract, 2% bacto-peptone, 2% dextrose) with OD600=3-4 was used to inoculate 1 liter of YPD. The culture was grown at 30° C. until […]. Cells were collected by centrifugation (5,300 g for 15 min at 4° C.) and resuspended in buffer (40 mM EDTA, 100 mM β-mercaptoethanol) at 1 g of cell pellet/3.5 ml buffer. The cell suspension was shaken for 30 min at 30° C., followed by centrifugation at 12,000 g for 10 min at 4° C. The cell pellet was washed with 5 ml 0.8 M sorbitol and resuspended in 6.8 ml of 2.9 mM citric acid, 11.3 mM dibasic sodium phosphate, 1 mM EDTA, 0.8 M sorbitol, with constant shaking at 30)C for 30 min. After centrifugation at 12,000 g for […] at 4° C., the pellet was resuspended in 31.3 ml 50 mM Tris-HCl, pH 7.0, and incubated on ice for 5 min. The mixture was then centrifuged at 12,000 g for 10 min at 4 AC, and the pellet was resuspended in 1 ml of 50 mM Tris-HCl and 33% glycerol, pH 7.5. The permeabilized cell preparation was stored at […] in aliquots.
(§2) 2. Preparation of Membrane Fraction of Yeast Cells
(§3) The protocol was modified from Douglas et al. (Journal of Bacteriology, 176, 5686-5696, 1994). For the preparation of S. cerevisiae and C. albicans membrane fractions, 1 liter of YPD supplemented with 0.02 mg/mL adenine and 0.08 mg/mL uracil was inoculated with 10 mL starter culture of PM503 (OD600=4) or the C. albicans strain BWP17 (OD600=12) in the same medium and grown at 30° C. until OD600 reached about 1. A. fumigatus (stain ND158) membranes were prepared by first preparing a spore suspension from agar slants by adding 6 mL of sterile saline, 0.1% Tween-20 solution to each slant, and resuspending by pipetting and scraping. The spore suspensions were used to inoculate two 200 mL flasks containing Sabouraud dextrose broth media. Cultures were incubated at 37° C., 250 rpm for ˜8 hrs. All cells, S. cerevisiae, C. albicans or A. fumigatus were harvested by centrifugation at 5,300 g at 4° C. for 40 minutes. After washing with 100 mL of breakage buffer (0.1 M KPi, pH 7.0, 1 mM EDTA, 1 mM DTT), the cell pellet was resuspended in 50 ml ice-cold breakage buffer. The mixture was transferred to a bead-beater chamber packed in ice (BioSpec Products, Bartlesville, Okla.). To each 50 mL sample was added 50 g of acid-washed glass beads ([…], Sigma). Cells were disrupted using 12×20 second pulses with 2 min-cooling intervals. Cell debris was removed by centrifugation at 3,000 g for 20 minutes at 4° C., and the supernatant was collected and centrifuged at 100,000 g for 1 hour at 4° C. to pellet the membrane fraction. The pellet was resuspended in 5 mL of ice-cold breakage buffer containing 25% glycerol, homogenized with a Dounce tissue homogenizer and stored at −80° C. in small aliquots.
(§4) 3. Glucan Synthase Assay and Compound Screening
The assay was performed according to Mo et at (Journal of Biological Chemistry, 269, 31267-31274, 1994) and Taft et al. (The Journal of Antibiotics, 47, 1001-1009, 1994), in a 96-well Optiplate (PerkinElmer). To each well was added 3 μL 10× compound stock (in 100% DMSO), or 3 μL of 30 μg/mL caspofungin in 100% DMSO (as positive control), or 3 μL 100% DMSO (as negative control), followed by the addition of appropriate amount of glucan synthase sources (2 μL permeabilized PM503 cells, or 3 μL membrane preparations from either PM503, BWP17, or ND158). The reaction was initiated by adding 25 μL reaction buffer (0.6 mM UDP-Glucose 0.6 nCi [U-^14C]DUP-Glucose (327 mCi/mmol, Amersham Bioscience), 20 μM GTP-γ-S, 25 mM NaF, 7.5 mg/mL BSA, 8% glycerol in 75 mM Tris-HCl, pH 7.5). […]

The target in experiment [2] is T2, glucan synthase (Candida albicans, UniProt O13428).
T2 construct: glucan synthase sources (2 μL permeabilized PM503 cells, or 3 μL membrane preparations from either PM503, BWP17, or ND158); endogenous in cells; host or cells: C. albicans strain BWP17, 100,000 g membrane fraction
T2 sequence (O13428 1-1897): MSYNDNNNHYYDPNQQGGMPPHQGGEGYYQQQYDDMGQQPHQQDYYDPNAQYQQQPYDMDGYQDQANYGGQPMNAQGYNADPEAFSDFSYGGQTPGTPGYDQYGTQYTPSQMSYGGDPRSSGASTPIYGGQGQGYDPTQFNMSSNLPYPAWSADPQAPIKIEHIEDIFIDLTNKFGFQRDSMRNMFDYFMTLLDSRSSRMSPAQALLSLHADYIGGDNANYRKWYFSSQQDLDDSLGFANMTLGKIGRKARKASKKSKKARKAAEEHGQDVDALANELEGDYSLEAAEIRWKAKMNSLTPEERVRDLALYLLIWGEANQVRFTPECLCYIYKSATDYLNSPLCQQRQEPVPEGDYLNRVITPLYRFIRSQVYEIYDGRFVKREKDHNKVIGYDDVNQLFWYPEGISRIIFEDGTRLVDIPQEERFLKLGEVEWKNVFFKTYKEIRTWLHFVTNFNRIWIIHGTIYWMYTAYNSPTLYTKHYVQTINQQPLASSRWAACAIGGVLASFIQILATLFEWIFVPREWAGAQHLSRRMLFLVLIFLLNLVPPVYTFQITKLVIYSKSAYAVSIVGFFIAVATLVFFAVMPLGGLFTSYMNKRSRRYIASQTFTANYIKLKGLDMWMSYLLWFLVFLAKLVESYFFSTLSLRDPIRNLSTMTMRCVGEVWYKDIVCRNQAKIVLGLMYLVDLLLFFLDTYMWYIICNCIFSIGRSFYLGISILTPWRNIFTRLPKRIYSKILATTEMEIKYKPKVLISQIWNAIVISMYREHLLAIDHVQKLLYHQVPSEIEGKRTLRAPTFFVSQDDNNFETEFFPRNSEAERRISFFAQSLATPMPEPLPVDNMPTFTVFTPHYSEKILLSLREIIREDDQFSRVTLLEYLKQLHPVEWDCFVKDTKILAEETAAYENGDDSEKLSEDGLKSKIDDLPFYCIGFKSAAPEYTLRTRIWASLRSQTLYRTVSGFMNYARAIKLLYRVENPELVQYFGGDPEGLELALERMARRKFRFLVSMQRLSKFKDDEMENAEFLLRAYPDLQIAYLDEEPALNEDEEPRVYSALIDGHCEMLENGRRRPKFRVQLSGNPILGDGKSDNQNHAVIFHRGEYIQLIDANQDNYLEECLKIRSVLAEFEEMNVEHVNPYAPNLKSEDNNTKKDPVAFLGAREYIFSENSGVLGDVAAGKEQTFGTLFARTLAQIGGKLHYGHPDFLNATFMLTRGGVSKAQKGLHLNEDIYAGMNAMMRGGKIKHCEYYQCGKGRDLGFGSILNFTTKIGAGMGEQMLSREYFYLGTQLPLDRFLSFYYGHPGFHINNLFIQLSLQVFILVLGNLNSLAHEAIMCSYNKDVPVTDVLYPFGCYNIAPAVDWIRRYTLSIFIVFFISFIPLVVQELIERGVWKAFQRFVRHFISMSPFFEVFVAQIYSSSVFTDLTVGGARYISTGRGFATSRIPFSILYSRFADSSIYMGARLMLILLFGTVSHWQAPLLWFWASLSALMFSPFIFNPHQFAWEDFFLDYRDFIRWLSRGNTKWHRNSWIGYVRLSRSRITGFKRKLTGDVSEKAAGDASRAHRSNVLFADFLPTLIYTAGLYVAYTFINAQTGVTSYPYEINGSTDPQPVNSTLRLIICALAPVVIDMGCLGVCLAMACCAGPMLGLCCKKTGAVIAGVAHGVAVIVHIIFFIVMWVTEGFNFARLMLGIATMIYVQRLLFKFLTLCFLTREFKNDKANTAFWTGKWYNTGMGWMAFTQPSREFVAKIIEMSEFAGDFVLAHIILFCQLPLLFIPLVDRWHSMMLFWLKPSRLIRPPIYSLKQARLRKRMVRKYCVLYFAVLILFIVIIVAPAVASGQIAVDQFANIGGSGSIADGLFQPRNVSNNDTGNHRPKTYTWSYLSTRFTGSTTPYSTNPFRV
T2 sequence (O42825 1-195 partner limits assumed): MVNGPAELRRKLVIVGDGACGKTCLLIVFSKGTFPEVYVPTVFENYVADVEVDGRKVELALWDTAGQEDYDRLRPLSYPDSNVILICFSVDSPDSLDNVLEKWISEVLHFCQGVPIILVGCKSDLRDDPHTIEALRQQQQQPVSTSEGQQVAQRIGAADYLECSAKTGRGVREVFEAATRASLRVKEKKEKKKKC
Briefly: β(1,3) glucan synthase assay, C. albicans BWP17 membrane preparation (IC50). The format is biochemical. The note with it: in vitro fungal enzyme activity assay, read-out: IC50 (μg/mL) Candida albicans (converted). As for the experimental part:
as §1, §2, §3, §4
The assay was performed according to Mo et at (Journal of Biological Chemistry, 269, 31267-31274, 1994) and Taft et al. (The Journal of Antibiotics, 47, 1001-1009, 1994), in a 96-well Optiplate (PerkinElmer). To each well was added 3 μL 10× compound stock (in 100% DMSO), or 3 μL of 30 μg/mL caspofungin in 100% DMSO (as positive control), or 3 μL 100% DMSO (as negative control), followed by the addition of appropriate amount of glucan synthase sources (2 μL permeabilized PM503 cells, or 3 μL membrane preparations from either PM503, BWP17, or ND158). The reaction was initiated by adding 25 μL reaction buffer (0.6 mM UDP-Glucose 0.6 nCi [U-^14C]DUP-Glucose (327 mCi/mmol, Amersham Bioscience), 20 μM GTP-γ-S, 25 mM NaF, 7.5 mg/mL BSA, 8% glycerol in 75 mM Tris-HCl, pH 7.5). The plate was incubated on a shaker for 1.5 hour at room temperature before being quenched with 250 μL 1% TCA (Trichloroacetic Acid). The quenched reaction was mixed by pipetting, and immediately transferred to a 96-well filter plate (Glass fiber B on 0.65 μm hydrophilic durapore membrane, Millipore) pre-wetted with wash buffer (5% TCA, 60 mM NaPPi). The glucan product was retained on the filter membrane by applying vacuum to the plate using a MultiScreen Resist Vacuum Manifold (Millipore). The filter plate was further washed 4 times with 200 μL wash buffer. The plate was dried at 50° C. for 30 minutes. 100 μL of Microscint-0 (PerkinElmer) was added to each well, and plate was counted in a TopCount NXT plate reader (PerkinElmer).
Dose-response curves were plotted from inhibition data generated. IC50 was determined by fitting the CPM versus the Concentration of the test compound plot with the following equation (4-parameter logistic model, ID Business Solutions XLfit 4.2).

A word on the pIC50: it is −log10 of the IC50, conventionally taken in molar units. A high value points to a low IC50. In experiment [1], `CC1(COc2c(N3CCN(S(=O)(=O)Cc4ccc5ocnc5c4)CC3)cnn(-c3cc(F)cc(F)c3)c2=O)CC1` [270*] had a pIC50 of 7.28. The IC50 in experiment [2] is 0.035 µM.
In turn, `CC1(COc2c(N3CCN(S(=O)(=O)NCc4ccc(F)cc4)CC3)cnn(-c3cc(F)cc(F)c3)c2=O)CC1` [1734Z] gave a pIC50 in experiment [1] of 6.97. Moreover, the IC50 in experiment [2] is 0.231 µM.
In turn, `CC1(COc2c(N3CCN(S(=O)(=O)Cc4ccccc4)CC3)cnn(-c3cccc(Cl)c3)c2=O)CC1` [1035Z] showed a pIC50 in experiment [1] of 7.12. Besides, the IC50 in experiment [2] is 0.0567 µM.
On to `COCCNc1cccc(CS(=O)(=O)N2CCN(c3cnn(-c4cccc(Cl)c4)c(=O)c3OCC3(C)CC3)CC2)c1` [1951Z], for which the pIC50 in experiment [1] is 7.00. For the same compound, the IC50 in experiment [2] is 0.083 µM.
Regarding `CC1(COc2c(N3CCN(S(=O)(=O)Cc4ccc(I)cc4)CC3)cnn(-c3cccc(Cl)c3)c2=O)CC1` [312*, 2-(3-chlorophenyl)-5-(4-(4-iodobenzylsulfonyl)piperazin-1-yl)-4-((1-methylcyclopropyl)methoxy)pyridazin-3(2H)-one], the pIC50 in experiment [1] is 7.04. Also, the IC50 in experiment [2] is 0.107 µM.
On to `CC1(COc2c(N3CCN(S(=O)(=O)NCc4ccc(Cl)nc4)CC3)cnn(-c3cccc(Cl)c3)c2=O)CC1` [1675Z], for which the pIC50 in experiment [1] is 6.86. In experiment [2], the IC50 is 0.345 µM.
As for `O=C(NCc1ccccc1)N1CCN(c2cnn(-c3cccc(Cl)c3)c(=O)c2OC2CCCC2)CC1` [204Z], the pIC50 in experiment [1] is 3.69. The IC50 in experiment [2] is 68.9 µM.
The matching figures for `COc1ccc(CS(=O)(=O)N2CCN(c3cnn(-c4cc(F)cc(F)c4)c(=O)c3OCC3(C)CC3)CC2)cc1N` [1864Z]: 6.98 and 0.0869 µM.
`CCCCCCCOc1c(N2CCN(S(=O)(=O)CC)CC2)cnn(-c2ccccc2)c1=O` [244Z] gave a pIC50 in experiment [1] of 6.70. Further, in experiment [2], the IC50 is 0.886 µM.
`CCOCCOc1c(N2CCN(C(=O)CC)CC2)cnn(-c2cccc(C)c2)c1=O` [227Z] had a pIC50 in experiment [1] of 3.44. The IC50 in experiment [2] was 367 µM.
Take `O=c1c(OCc2cccc(F)c2)c(N2CCN(S(=O)(=O)Cc3ccccc3)CC2)cnn1-c1cc(F)cc(F)c1` [1529Z-150]: the pIC50 in experiment [1] is 7.15. For the same compound, the IC50 in experiment [2] is 0.175 µM.
Taken in the same sequence, the figures for `N#Cc1cccc(-c2c(N3CCN(S(=O)(=O)Cc4ccccc4)CC3)cnn(-c3cc(F)cc(F)c3)c2=O)c1` [82Z] were 7.06 and 0.822 µM.
The matching figures for `CC(C)(C)COc1c(N2CCN(S(=O)(=O)Cc3cccc(N)c3)CC2)cnn(-c2cc(F)cc(F)c2)c1=O` [1529Z-190]: 7.04 and 0.219 µM.
Regarding `O=c1c(OCC2CC2(F)F)c(N2CCN(S(=O)(=O)Cc3ccccc3)CC2)cnn1-c1cc(F)cc(F)c1` (stereo not shown) [1529Z-180], the pIC50 in experiment [1] is 8.74. Moreover, in experiment [2], the IC50 is 0.00543 µM.
Turning to `O=c1c(OC2CCCC2)c(N2CCN(S(=O)(=O)NCc3ccccc3)CC2)cnn1-c1cc(F)cc(F)c1` [1629Z], in experiment [1], the pIC50 is 7.44. Also, in experiment [2], the IC50 was 0.0916 µM.
In the case of `CCCCCCCCCC(=O)N1CCN(c2cnn(-c3ccccc3)c(=O)c2OCCCCCCC)CC1` [232Z], the pIC50 in experiment [1] was 5.42. Further, the IC50 in experiment [2] was 15.6 µM.
On to `Cc1ccc(CNS(=O)(=O)N2CCN(c3cnn(-c4cc(F)cc(F)c4)c(=O)c3OC3CCC(F)C3)CC2)cc1N` (stereo not shown) [1715Z], for which the pIC50 in experiment [1] is 6.77. Further, the IC50 in experiment [2] was 0.523 µM.
In experiment [1], `CC1(COc2c(N3CCN(S(=O)(=O)Cc4ccc(N)cc4)CC3)cnn(-c3cc(F)cc(F)c3)c2=O)CC1` [767Z] gave a pIC50 of 7.04. In experiment [2], the IC50 was 0.238 µM.
Consider `Nc1ccc(CS(=O)(=O)N2CCN(c3cnn(-c4cccc(Cl)c4)c(=O)c3OCc3ccccc3)CC2)cc1` [1529Z-19], for which the pIC50 in experiment [1] is 7.15. Also, in experiment [2], the IC50 was 0.23 µM.
The compound `O=c1c(N2CCOCC2)c(N2CCN(S(=O)(=O)Cc3ccccc3)CC2)cnn1Cc1c(F)cccc1Cl` [30Z] showed a pIC50 in experiment [1] of 6.15. In addition, the IC50 in experiment [2] is 16 µM.
`Nc1ccc(CS(=O)(=O)N2CCN(c3cnn(-c4cc(F)cc(F)c4)c(=O)c3OC3CCC(F)C3)CC2)cc1` (stereo not shown) [1529Z-6] gave a pIC50 in experiment [1] of 7.45. The IC50 in experiment [2] was 0.106 µM.
`CC(C)(C)COc1c(N2CCN(S(=O)(=O)Cc3ccc(N)cc3)CC2)cnn(-c2cc(F)cc(F)c2)c1=O` [1529Z-174]: the pIC50 in experiment [1] is 6.89. The IC50 in experiment [2] was 0.183 µM.
In turn, `O=c1c(OC2CCCC2)c(N2CCN(S(=O)(=O)NCc3ccccc3)CC2)cnn1-c1cccc(Cl)c1` [808Z] showed a pIC50 in experiment [1] of 7.26. Also, the IC50 in experiment [2] is 0.0919 µM.
In the case of `Nc1ccc(CS(=O)(=O)N2CCN(c3cnn(-c4cccc(Cl)c4)c(=O)c3OCC3(CF)CC3)CC2)cc1` [809Z], the pIC50 in experiment [1] was 7.15. Moreover, in experiment [2], the IC50 was 0.196 µM.
Regarding `Nc1ccc(CS(=O)(=O)N2CCN(c3cnn(-c4cc(F)cc(F)c4)c(=O)c3OCC3(CF)CC3)CC2)cc1` [932Z], the pIC50 in experiment [1] is 7.15. The IC50 in experiment [2] was 0.231 µM.
`CC1(COc2c(N3CCN(S(=O)(=O)Cc4cccc(Cl)c4N)CC3)cnn(-c3cc(F)cc(F)c3)c2=O)CC1` [Compound 1574Zq] had a pIC50 in experiment [1] of 7.16. The IC50 in experiment [2] was 0.138 µM.
